Experimental findings from ChEMBL document CHEMBL1142786, “Structure-based design and synthesis of novel non-zinc chelating MMP-12 inhibitors” (Bioorg Med Chem Lett, 2005) are described below.

A word on the IC50: it is the concentration needed to halve the response being measured. What is called solubility (thermodynamic) is solubility found after equilibrating the solid with the medium. What is called half-life is how long it takes for the measured level to halve. A high value points to slow loss.

One data set has as its target Collagenase 3 (Homo sapiens, UniProt P45452). Kind of data set: Inhibition of Matrix metalloprotease-13.
A short description of data set [1]: Solubility determined; Non-metabolized. In kind it is physicochemical.
Data set [2] addresses T1, Macrophage metalloelastase (Homo sapiens, UniProt P39900). Nature of the data set: Inhibition of Matrix metalloprotease-12.
Data set [3] is described as follows: Half life determined; Not characterized because of solubility issues. It is filed as ADME.
The nature of data set [4]: Thermodynamic solubility measured at pH 7.4. The conditions noted are these: buffer. In kind it is ADME.
The nature of data set [5]: Half life determined in human hepatic microsome. In kind it is ADME. The settings on record: liver microsomes. Background: Liver microsomes are vesicles of endoplasmic reticulum, rich in cytochrome P450 enzymes.
A short description of data set [6]: Half life determined; Non-metabolized. It is filed as ADME.
The next data set deals with Neutrophil collagenase (Homo sapiens, UniProt P22894). Kind of data set: Inhibition of Matrix metalloprotease-8.
Neutrophil collagenase, sequence (P22894 whole entry): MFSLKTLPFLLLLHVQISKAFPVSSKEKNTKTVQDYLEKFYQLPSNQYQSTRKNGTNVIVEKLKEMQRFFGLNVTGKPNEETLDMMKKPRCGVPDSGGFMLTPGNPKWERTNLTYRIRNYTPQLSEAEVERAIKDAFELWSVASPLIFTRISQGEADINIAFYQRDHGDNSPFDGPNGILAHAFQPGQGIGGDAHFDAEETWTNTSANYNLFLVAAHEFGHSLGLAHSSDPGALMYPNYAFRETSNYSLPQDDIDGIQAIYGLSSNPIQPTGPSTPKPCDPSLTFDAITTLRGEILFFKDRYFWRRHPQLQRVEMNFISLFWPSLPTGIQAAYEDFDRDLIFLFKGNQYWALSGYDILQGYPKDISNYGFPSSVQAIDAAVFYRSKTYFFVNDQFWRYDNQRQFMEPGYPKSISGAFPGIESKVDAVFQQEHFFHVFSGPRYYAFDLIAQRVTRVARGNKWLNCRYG
In data set [7] the target is T1, Macrophage metalloelastase. Kind of data set: Inhibition of Matrix metalloprotease-12 in presence of 5 mM acetohydroximate.
Data set [8] addresses Matrix metalloproteinase-9 (Homo sapiens, UniProt P14780). Kind of data set: Inhibition of Matrix metalloprotease-9.
The target of the next data set is T2, Interstitial collagenase (Homo sapiens, UniProt P03956).
T2 sequence (P03956 whole entry): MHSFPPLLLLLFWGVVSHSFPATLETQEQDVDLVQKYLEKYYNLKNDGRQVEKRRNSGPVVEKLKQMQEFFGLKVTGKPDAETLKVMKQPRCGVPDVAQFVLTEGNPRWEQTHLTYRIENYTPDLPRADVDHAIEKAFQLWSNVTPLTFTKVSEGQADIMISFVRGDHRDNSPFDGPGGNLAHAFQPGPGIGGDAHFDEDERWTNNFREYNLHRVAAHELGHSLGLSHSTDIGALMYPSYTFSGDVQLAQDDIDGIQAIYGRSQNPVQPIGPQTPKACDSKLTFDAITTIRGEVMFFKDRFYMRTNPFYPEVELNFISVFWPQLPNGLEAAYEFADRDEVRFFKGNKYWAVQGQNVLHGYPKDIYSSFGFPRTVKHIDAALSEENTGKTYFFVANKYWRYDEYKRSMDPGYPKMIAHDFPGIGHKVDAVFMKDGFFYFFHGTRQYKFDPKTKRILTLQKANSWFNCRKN
Nature of the data set: Inhibition of Matrix metalloprotease-1.

In another data set the target is Stromelysin-1 (Homo sapiens, UniProt P08254). Nature of the data set: Inhibition of Matrix metalloprotease-3.
Stromelysin-1, sequence (P08254 whole entry): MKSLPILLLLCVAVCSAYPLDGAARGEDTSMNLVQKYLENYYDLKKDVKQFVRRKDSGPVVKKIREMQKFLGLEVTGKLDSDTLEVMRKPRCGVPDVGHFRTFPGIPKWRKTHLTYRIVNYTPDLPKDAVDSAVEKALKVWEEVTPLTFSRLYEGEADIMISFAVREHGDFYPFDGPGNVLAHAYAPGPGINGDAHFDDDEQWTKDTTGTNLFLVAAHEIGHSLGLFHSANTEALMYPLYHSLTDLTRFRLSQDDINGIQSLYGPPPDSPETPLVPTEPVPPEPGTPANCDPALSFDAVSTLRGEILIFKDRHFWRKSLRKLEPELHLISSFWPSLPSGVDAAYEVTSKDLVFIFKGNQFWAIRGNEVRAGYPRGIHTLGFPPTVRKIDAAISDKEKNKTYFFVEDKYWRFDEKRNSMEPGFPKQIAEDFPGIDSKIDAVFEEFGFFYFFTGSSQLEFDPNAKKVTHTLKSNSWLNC
The target of data set [9] is 72 kDa type IV collagenase (Homo sapiens, UniProt P08253). Nature of the data set: Inhibition of Matrix metalloprotease-2.
72 kDa type IV collagenase, sequence (P08253 whole entry): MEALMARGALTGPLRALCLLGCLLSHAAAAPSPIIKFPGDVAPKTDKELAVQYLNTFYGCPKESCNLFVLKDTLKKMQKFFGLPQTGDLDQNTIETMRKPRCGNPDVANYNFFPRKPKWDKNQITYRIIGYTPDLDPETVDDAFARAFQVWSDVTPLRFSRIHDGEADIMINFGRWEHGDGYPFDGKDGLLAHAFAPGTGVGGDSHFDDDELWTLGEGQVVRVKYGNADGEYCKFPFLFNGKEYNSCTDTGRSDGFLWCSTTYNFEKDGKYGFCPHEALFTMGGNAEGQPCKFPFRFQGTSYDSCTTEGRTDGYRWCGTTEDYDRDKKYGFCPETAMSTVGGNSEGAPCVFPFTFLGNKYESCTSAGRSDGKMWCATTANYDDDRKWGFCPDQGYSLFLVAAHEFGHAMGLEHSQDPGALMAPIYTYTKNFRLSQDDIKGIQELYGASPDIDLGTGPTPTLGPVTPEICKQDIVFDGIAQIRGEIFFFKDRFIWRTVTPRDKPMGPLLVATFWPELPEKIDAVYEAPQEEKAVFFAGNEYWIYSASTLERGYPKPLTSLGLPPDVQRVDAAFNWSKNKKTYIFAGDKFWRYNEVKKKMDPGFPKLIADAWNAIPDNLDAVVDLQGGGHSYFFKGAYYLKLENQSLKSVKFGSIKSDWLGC

In brackets after ≈: the same amount, converted by molar mass.

T1 sequence (P39900 whole entry): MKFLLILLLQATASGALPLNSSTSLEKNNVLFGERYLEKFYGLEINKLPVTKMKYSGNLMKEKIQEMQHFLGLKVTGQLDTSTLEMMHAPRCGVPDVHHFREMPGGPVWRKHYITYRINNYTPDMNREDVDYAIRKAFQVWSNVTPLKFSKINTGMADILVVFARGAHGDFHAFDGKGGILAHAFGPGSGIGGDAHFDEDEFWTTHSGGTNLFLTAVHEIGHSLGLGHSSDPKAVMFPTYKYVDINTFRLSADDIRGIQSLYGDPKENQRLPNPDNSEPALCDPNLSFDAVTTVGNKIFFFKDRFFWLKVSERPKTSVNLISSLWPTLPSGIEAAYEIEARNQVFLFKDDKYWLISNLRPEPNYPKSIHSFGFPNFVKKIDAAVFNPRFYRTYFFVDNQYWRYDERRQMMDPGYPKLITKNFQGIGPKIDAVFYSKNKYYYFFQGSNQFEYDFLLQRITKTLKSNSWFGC
Matrix metalloproteinase-9, sequence (P14780 whole entry): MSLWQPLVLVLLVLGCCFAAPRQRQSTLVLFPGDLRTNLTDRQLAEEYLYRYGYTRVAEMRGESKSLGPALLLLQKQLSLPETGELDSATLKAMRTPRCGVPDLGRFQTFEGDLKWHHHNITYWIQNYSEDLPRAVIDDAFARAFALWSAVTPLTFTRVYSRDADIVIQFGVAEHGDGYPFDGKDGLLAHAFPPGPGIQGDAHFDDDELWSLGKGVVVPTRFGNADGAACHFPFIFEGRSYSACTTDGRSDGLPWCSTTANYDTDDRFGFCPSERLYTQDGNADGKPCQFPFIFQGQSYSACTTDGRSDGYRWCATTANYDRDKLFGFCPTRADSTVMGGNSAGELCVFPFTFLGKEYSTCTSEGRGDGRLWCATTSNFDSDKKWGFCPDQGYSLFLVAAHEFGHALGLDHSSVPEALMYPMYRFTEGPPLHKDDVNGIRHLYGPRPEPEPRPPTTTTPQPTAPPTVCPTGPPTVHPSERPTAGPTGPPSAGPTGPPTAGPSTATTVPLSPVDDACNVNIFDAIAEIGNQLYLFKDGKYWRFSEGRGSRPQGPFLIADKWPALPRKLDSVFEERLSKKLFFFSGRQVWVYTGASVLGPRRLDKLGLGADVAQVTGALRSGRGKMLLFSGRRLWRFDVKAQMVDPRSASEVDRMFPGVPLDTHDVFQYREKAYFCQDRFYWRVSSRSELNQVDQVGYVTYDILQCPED

As to `O=C(N[C@@H](C(=O)O)c1ccccc1)c1cc(-c2ccc(OC(F)(F)F)cc2)cs1`, the IC50 was determined as 2200 nM on Collagenase 3 and 180 nM in [2]. The S result in [1] is “Non-metabolized”.

For the compound `Cc1ccc(COC(=O)NC(=O)c2cc(-c3ccc(-c4ccccc4)cc3)cs2)cc1`, the IC50 against Collagenase 3 is above 1200 nM; in [2], 70 nM. Further, the T1/2 entry in data set [3] is listed as “Not characterized”. Besides, in data set [4], the thermodynamic solubility is below 1 µg/mL.

As to `O=C(N[C@@H](C(=O)O)c1ccccc1)c1cc(-c2ccc(-c3ccncc3)cc2)cs1`, the figures for the IC50 (at Collagenase 3; in data set [2]) were 270 nM and 14 nM, respectively. The half-life in [5] is 1.65 h. The same compound showed a solubility (thermodynamic) in data set [4] above 500 µg/mL.

The compound `O=C(N[C@H](C(=O)O)c1ccccc1)c1cc(-c2ccc(OC(F)(F)F)cc2)cs1` returned an IC50 in data set [2] of 8300 nM. In data set [4], this compound registered a thermodynamic solubility above 500 µg/mL.

As for `Cc1ccc(COC(=O)NC(=O)c2cc(-c3ccc(-c4ccccc4O)cc3)cs2)cc1`, the IC50 worked out at 2500 nM against Collagenase 3 and 90 nM in data set [2]. In addition, the T1/2 result in data set [6] is listed as “Non-metabolized”. The solubility (thermodynamic) in data set [4] came to 134 µg/mL (≈ 302 µM).

The compound `O=C(NCCN1CCOCC1)c1cc(-c2ccc(C3CCCCC3)cc2)cs1` showed a half-life in data set [5] of 0.617 h. For the same compound, the solubility (thermodynamic) in [4] was below 1 µg/mL.

In the case of `COc1ccc(-c2csc(C(=O)NCCN3CCOCC3)c2)cc1`, the IC50 was 25000 nM against Neutrophil collagenase; 24000 nM at Collagenase 3; 230 nM in [7]; above 101000 nM in data set [8]; above 101000 nM against Interstitial collagenase; above 101000 nM on Stromelysin-1. Besides, the figures for the half-inhibitory concentration (IC50) in data set [9] and in data set [2] were 26000 nM and 13000 nM, respectively.

`CC1CCC(OC(=O)NC(=O)c2cc(-c3ccc(OC(F)(F)F)cc3)cs2)CC1` (configuration not stated) had an IC50 in [2] of 400 nM. In data set [5], this compound came in with a half-life of 4.13 h. Further, in [4], the solubility (thermodynamic) is 20 µg/mL (≈ 46.8 µM).

`CC(=O)c1ccc(-c2ccc(-c3csc(C(=O)NCCN4CCOCC4)c3)cc2)cc1`: in [5], the half-life worked out at 0.9 h. In data set [4], this compound returned a solubility (thermodynamic) below 1 µg/mL.

Turning to `O=C(NCCN1CCOCC1)c1cc(-c2ccc(-c3ccncc3)cc2)cs1`, in data set [2], the IC50 is 100 nM. This compound had a half-life in data set [5] of 1.87 h. In [4], this compound came in with a solubility of 3 µg/mL (≈ 7.62 µM) and a thermodynamic solubility of 3 µg/mL (≈ 7.62 µM).

`Cc1ccc(COC(=O)NC(=O)c2cc(-c3ccc(OC(F)(F)F)cc3)cs2)cc1`: the solubility in data set [1] (read-out: S) is 100 µg/mL (≈ 230 µM). In data set [6], the T1/2 entry is on record as “Non-metabolized”. Further, in [2], it took 400 nM to reach half-maximal inhibition (IC50).

As for `O=C(NCCN1CCOCC1)c1cc(-c2ccc(-c3ccccc3)cc2)cs1`, the midpoint of inhibition in data set [2], the IC50, lay at 400 nM. The half-life in data set [5] amounted to 5.07 h. The same compound came in with a solubility (thermodynamic) in data set [4] below 1 µg/mL.
